Measurements: patent publication US20240300945A1, “CLY SERIES COMPOUND, PREPARATION METHOD THEREFOR AND USE THEREOF IN PREPARATION OF DRUGS” (NANJING WELLBEST PHARMACEUTICAL CO., LTD, priority 2021, published 2024)
Marks after values point to notes of the source that are not given here.

Columns and labels:
[1] = system: rabbit ear acne model; assay: Rabbit ear acne model: macroscopic observation and histological grading; format: in vivo, New Zealand rabbits; details: right ear, 10 per group; for number of rabbits with acne histological grading 2+: Grade 2; for number of rabbits with acne histological grading —: Level 0, without acne; for number of rabbits with acne histological grading 1+: Level 1; for number of rabbits with acne histological grading 3+: Level 3
Text: (1) Preparation method of treatment cream: The excipient matrix components included methyl silicone oil (15%), stearic acid (6%), white vaseline (5%), liquid paraffin (5%), octadecanol (5%), glycerin (20%), alkyl aryl polyglycol ether (1%), fatty alcohol polyoxyethylene ether (1%), […] (1%), ethyl paraben (0.1%), distilled water (about 31-55%), and mixed with appropriate amount of CLY series compounds to form a mixed emulsion. The emulsion matrix used in this embodiment refers to the matrix component after the active ingredient was removed from the emulsion.
(2) Positive therapeutic drug: 0.1% adapalene gel (Trade name: Differin, produced by Laboratoires Galderma, France).
(§1) New Zealand rabbits were, according to weights, randomly divided into the model control group (applied cream matrix), positive treatment group (applied Differin on the skin), CLY-1 external treatment group (0.25% CLY-1 cream on the skin), CLY-2 external treatment group (0.25% CLY-2 cream on the skin), CLY-3 external treatment group (0.25% CLY-3 cream on the skin), CLY-4 external treatment group (0.25% CLY-4 cream on the skin) CLY-8 external treatment group (0.25% CLY-8 cream on the skin), CLY-9 external treatment group (0.25% CLY-9 cream on the skin), CLY-11 external treatment group (0.25% CLY-11 cream on the skin), CLY-19 external treatment group (0.25% CLY-19 cream on the skin), CLY-36 external treatment group (0.25% CLY-36 cream on the skin); CLY-1 intravenous injection group (1 mg/kg·d), CLY-2 intravenous injection group (1 mg/kg·d), CLY-3 intravenous injection group (1 mg/kg·d), CLY-4 intravenous injection group (1 mg/kg·d), CLY-8 intravenous injection group (1 mg/kg·d), CLY-9 intravenous injection group (1 mg/kg·d), CLY-11 intravenous injection group (1 mg/kg·d), CLY-19 intravenous injection group (1 mg/kg·d), and CLY-36 intravenous injection group (1 mg/kg·d), with 10 in each group. Took the inner side of the rabbit's right ear for depilation treatment as the observation area, and the inner side of the left ear of all rabbits as their own negative control, and applied 95% alcohol. The inner side of the right ear of the model group and the treatment group were both coated with 2% coal tar (Alfa Aesar China, which used 95% alcohol to prepare 2% coal tar solution), and evenly applied the sterile cotton swab to the opening of the ear duct on the inner side of the rabbit's ear within the range of about 2 cm×2 cm, once a day, 0.5 mL each time, and wiped the previous application site with warm water for 14 consecutive days to establish the acne micro-pigmentation model. Visually observed the changes of local skin, including ear thickness, hardness, roughness, and whether there was a black angle plug at the hair follicle mouth. 18 hours after the last application, the sample was sacrificed and skin was taken. The skin tissue was taken from the application site by using a 5 mm punch, fixed with 10% formaldehyde, embedded in paraffin, and stained with HE. The histopathological observation and analysis were carried out.
The histological grading criteria of the acne model: 3 grades according to histological grade. […] The tight keratin embolism in the hair follicles causes severe expansion of the hair follicles, obvious hyperplasia of the sebaceous duct epithelium, skin bulges and scars, and some sebaceous glands degenerate “3±”.
(§2) SPSS16 software was used for statistical analysis. The paired t-test was used for the left and right self-contrast, and the t-test was used for the comparison between the groups, P<0.05 was statistically significant.

[2] = system: rabbit ear acne model; assay: Rabbit ear acne model: epidermal thickness, hair follicle area, sebaceous gland diameter; format: in vivo, New Zealand rabbits; details: rabbit right ear
Text: as §1
The histopathological changes were observed under the microscope, and the thickness of five different epidermises on a slice was measured with the Biomias99 image analysis system, and the average value was calculated; Detected the area of the two hair follicles and the diameter of the four sebaceous glands with the same position and the most complete structure in the four sections, calculated their average values, and then subtracted the data of the left and right external auditory canal of the rabbits in each group to obtain the difference in the thickness of the left and right ear epidermis, the difference in the area of the hair follicles and the difference in the diameter of the sebaceous glands.
as §2

[3] = system: serum IL-4; assay: Mouse eczema model: serum IL-4 (ELISA); format: in vivo, C57BL/6 mice; details: after modeling, 0.1% cream for external use twice a day, 10 days (positive: aloxone)
Text: SPF grade female C57BL/6 mice were purchased at the age of 8 weeks (0.02 kg), 6 in each group, and randomly divided into the blank control group, model group, positive drug group, CLY-1 treatment group (0.1% CLY-1 cream for external use), CLY-2 treatment group (0.1% CLY-2 cream for external use), CLY-3 treatment group (0.1% CLY-3 cream for external use), CLY-4 treatment group (0.1% CLY-4 cream for external use), CLY-8 treatment group (0.1% CLY-8 cream for external use), CLY-11 treatment group (0.1% CLY-11 cream for external use) CLY-19 treatment group (0.1% CLY-19 cream for external use), CLY-36 treatment group (0.1% CLY-36 cream for external use) and CLY-39 treatment group (0.1% CLY-39 cream for external use).
Model establishment: the normal control group mice were smeared with 75% ethanol 14.3 ul on both ears, while the model group, positive drug group and treatment group were smeared with 1 nmol/L carpotriol liniment 14.3 ul on both ears at a regular time every day, and then smeared with 20 g/L OVA 25 ul after air drying, once a day, for 12 days to make a model.
From 4 days after the start of modeling, applied the cream matrix on the ear skin of mice in the blank control group and the model group, applied aloxone on the ear skin of mice in the positive drug group, and applied the treatment cream on the ear skin of mice in each treatment group respectively, twice a day in the morning and evening, for 10 consecutive days, took photos every day, and recorded scores.
The thickness of mouse auricle was measured and recorded with ear thickness measuring instrument before and on the 14th day respectively. After the measurement on the 14th day, the mice were sacrificed. Blood was taken and serum was separated.
The enzyme-labeled plate was coated with rabbit anti-mouse interleukin (IL)-4 antibody, stayed at 4° C. overnight, and the reaction was stopped according to the instructions of the ELISA kit to detect the level of serum IL-4. ELISA kits were all purchased from Raybiotech, USA.

[4] = external use (0.25% CLY cream; positive: Differin)
[5] = intravenous injection 1 mg/kg·d

| SMILES | number of rabbits with acne histological grading 2+ [1, 4] | number of rabbits with acne histological grading 2+ [1, 5] | number of rabbits with acne histological grading — [1, 4] | number of rabbits with acne histological grading — [1, 5] | number of rabbits with acne histological grading 1+ [1, 4] | number of rabbits with acne histological grading 1+ [1, 5] | number of rabbits with acne histological grading 3+ [1, 4] | number of rabbits with acne histological grading 3+ [1, 5] | epidermal thickness [2, 4] [mm] | hair follicle area [2, 4] | sebaceous gland diameter [2, 4] [mm] | epidermal thickness [2, 5] [mm] | hair follicle area [2, 5] | sebaceous gland diameter [2, 5] [mm] | IL-4 level in peripheral blood [3] [pg/mL] |
| --- | --- | --- | --- | --- | --- | --- | --- | --- | --- | --- | --- | --- | --- | --- | --- |
| CN1CCC[C@@H](N(C(=O)c2ccc(-n3nnc4cccnc43)cc2)c2ncccc2Cl)C1 [CLY-1, (R)-4-(3H-[1,2,3]triazolo[4,5-b]pyridin-3-yl)-N-(3-chloropyridin-2-yl)-N-(1-methylpiperidin-3-yl)benzamide] | 2 | 1 | 5 | 7 | 3 | 2 | 0 | 0 | 0.2376 ± 0.0182 | 0.2736 ± 0.0967* mm^2 | 0.0825 ± 0.0389 | 0.2287 ± 0.0171 | 0.2256 ± 0.0863* mm^2 | 0.0536 ± 0.0312 | 6.76 |
| CCN1CCC[C@@H](N(C(=O)c2ccc(-n3nnc4cccnc43)cc2)c2ncccc2Cl)C1 [CLY-2, (R)-4-(3H-[1,2,3]triazolo[4,5-b]pyridin-3-yl)-N-(3-chloropyridin-2-yl)-N-(1-ethylpiperidin-3-yl)benzamide] | 2 | 1 | 6 | 8 | 2 | 1 | 0 | 0 | 0.2348 ± 0.0169 | 0.2639 ± 0.0934* mm^2 | 0.0687 ± 0.0375 | 0.2265 ± 0.0165 | 0.2232 ± 0.0859* mm^2 | 0.0496 ± 0.0298 | 5.58 |
| CNC1CCCC(N(C(=O)c2ccc(-n3nnc4cccnc43)cc2)c2ncccc2Cl)C1 (stereo not drawn) [CLY-3] | 2 | 2 | 4 | 6 | 4 | 2 | 0 | 0 | 0.2385 ± 0.0198 | 0.2923 ± 0.0987* mm^2 | 0.0837 ± 0.0412 | 0.2316 ± 0.0196 | 0.2287 ± 0.0883* mm^2 | 0.0575 ± 0.0354 | 7.32 |
| O=C(c1ccc(-n2nnc3cccnc32)cc1)N(c1ncccc1Cl)C1CCCC(O)C1 (stereo not drawn) [CLY-4] | 2 | 2 | 3 | 5 | 5 | 3 | 0 | 0 | 0.2436 ± 0.0215 | 0.3254 ± 0.1126* mm^2 | 0.0958 ± 0.0456 | 0.2363 ± 0.0235 | 0.2465 ± 0.0923* mm^2 | 0.0625 ± 0.0386 | 7.51 |
| O=C(c1ccc(-n2nnc3cccnc32)cc1)N(c1ncccc1Cl)[C@@H]1CCNC1 [CLY-8, (R)-4-(3H-[1,2,3]triazolo[4,5-b]pyridin-3-yl)-N-(3-chloropyridin-2-yl)-N-(pyrrolidin-3-yl)benzamide] | 1 | 0 | 8 | 9 | 1 | 1 | 0 | 0 | 0.2237 ± 0.0168 | 0.2115 ± 0.0832* mm^2 | 0.0663 ± 0.0307 | 0.1843 ± 0.0156 | 0.1845 ± 0.0653* mm^2 | 0.0572 ± 0.0289 | 5.53 |
| NC1CCCC(N(C(=O)c2ccc(-n3nnc4cccnc43)cc2)c2ncccc2Cl)C1 (stereo not drawn) [CLY-11] | 2 | 1 | 5 | 7 | 3 | 2 | 0 | 0 | 0.2372 ± 0.0176 | 0.2745 ± 0.0946* mm^2 | 0.0786 ± 0.0392 | 0.2295 ± 0.0173 | 0.2246 ± 0.0856* mm^2 | 0.0552 ± 0.0325 | 6.45 |
